From PubChem BioAssay (NCI)
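48-hour exposure; five concentrations; linearly interpolated endpoints. GI50 is the concentration that inhibits growth by half. The concentration for full growth arrest is given as TGI.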

How the values were obtained:
Experiment in all cases: growth of human tumour cells (NCI), 48 h
786-0 renal = tested on: 786-0 renal
SF-268 CNS = tested on: SF-268 CNS
RXF 393 renal = tested on: RXF 393 renal
PC-3 prostate = tested on: PC-3 prostate
K-562 leukemia = tested on: K-562 leukemia
SF-539 CNS = tested on: SF-539 CNS
MDA-MB-435 = tested on: MDA-MB-435
HT29 colon = tested on: HT29 colon
UO-31 renal = tested on: UO-31 renal
CCRF-CEM leukemia = tested on: CCRF-CEM leukemia

| SMILES | GI50 (786-0 renal) | TGI (786-0 renal) | GI50 (SF-268 CNS) | TGI (SF-268 CNS) | GI50 (RXF 393 renal) | TGI (RXF 393 renal) | GI50 (PC-3 prostate) | TGI (PC-3 prostate) | GI50 (K-562 leukemia) | TGI (K-562 leukemia) | GI50 (SF-539 CNS) | TGI (SF-539 CNS) | GI50 (MDA-MB-435) | TGI (MDA-MB-435) | GI50 (HT29 colon) | TGI (HT29 colon) | GI50 (UO-31 renal) | TGI (UO-31 renal) | GI50 (CCRF-CEM leukemia) | TGI (CCRF-CEM leukemia) |
| --- | --- | --- | --- | --- | --- | --- | --- | --- | --- | --- | --- | --- | --- | --- | --- | --- | --- | --- | --- | --- |
| N#C/C(=C\c1cc2ccc(N3CCC3)cc2oc1=O)C(=O)N(CC(=O)O)CC(=O)O | > 100 µM | > 100 µM | > 100 µM | > 100 µM | > 100 µM | > 100 µM | > 100 µM | > 100 µM | 97.2 µM | > 100 µM | > 100 µM | > 100 µM | > 100 µM | > 100 µM | > 100 µM | > 100 µM | > 100 µM | > 100 µM | > 100 µM | > 100 µM |
| COc1cc(-c2ncn(/C=C\c3nnco3)n2)cc(C(F)(F)F)c1 | 0.465 µM | > 51.9 µM | 0.0891 µM | 23.9 µM | 0.0307 µM | 0.198 µM | 0.189 µM | > 100 µM | 0.122 µM | > 100 µM | 0.0295 µM | 0.581 µM | 0.0894 µM | 3.33 µM | 0.191 µM | 50.8 µM | 0.247 µM | > 100 µM | 0.194 µM | > 100 µM |
| COc1ccc2c(c1)C(=O)c1c-2c(=O)n(CCCN(C)C)c2cc(OC)c(OC)cc12 | 6.93 µM | 20.5 µM | 0.427 µM | 15.2 µM | 11.2 µM | 23.6 µM | 11.4 µM | 26.5 µM | 4.75 µM | 24 µM | 3.61 µM | 14.9 µM | 11.3 µM | 23.3 µM | 3.69 µM | 19.1 µM | 3.4 µM | 16.1 µM | 0.05 µM | 12.2 µM |
| CCOC(=O)C(Cc1ccc(N(CCCl)CCCl)cc1)NC(=O)C(Cc1ccccc1)NC(C)=O (stereo not given) | – | > 0.399 µM | – | > 0.288 µM | – | 0.259 µM | – | > 0.374 µM | – | > 0.502 µM | – | > 0.294 µM | – | > 1 µM | – | > 0.219 µM | – | > 0.328 µM | – | 0.213 µM |
| COc1ccc(S(=O)(=O)N2CCNCC2)cc1OC | > 100 µM | > 100 µM | > 100 µM | > 100 µM | > 100 µM | > 100 µM | > 100 µM | > 100 µM | > 100 µM | > 100 µM | > 100 µM | > 100 µM | > 100 µM | > 100 µM | > 100 µM | > 100 µM | > 100 µM | > 100 µM | > 100 µM | > 100 µM |
| c1ccc2c(CNCCN3CCNCC3)c3ccccc3c(CNCCN3CCNCC3)c2c1 | 2.26 µM | 23.4 µM | 12.4 µM | 33.3 µM | 25.3 µM | 81.9 µM | 5.86 µM | 20.3 µM | 10.3 µM | 32.7 µM | 16.4 µM | 37 µM | 11.7 µM | 27.2 µM | 29.2 µM | > 100 µM | > 100 µM | > 100 µM | 2.3 µM | 14.2 µM |
| O=S(=O)(NCCCNc1cc(-c2cn(-c3ccccc3)nc2-c2cccc(O)c2)ccn1)c1ccc(F)cc1 | 2.35 µM | 6.23 µM | 3.65 µM | 22.9 µM | 3.21 µM | 14.6 µM | 3.11 µM | 8.5 µM | 2.4 µM | 6.38 µM | 2.99 µM | 15.8 µM | 3.36 µM | 12.9 µM | 2.26 µM | 6.5 µM | 2.62 µM | 11.9 µM | 2.45 µM | 9.41 µM |
| COc1c(CC=C(C)C)c(O)c(C(CC(C)C)c2c(O)c(CC=C(C)C)c(O)c(C(C)=O)c2O)c(O)c1C(C)=O (stereo not given) | – | 11.9 µM | – | 8.12 µM | – | 11.1 µM | – | 10.3 µM | – | 5.71 µM | – | 7.76 µM | – | 6.47 µM | – | 8.63 µM | – | 11.1 µM | – | 1.65 µM |
| N#Cc1c(NC(=O)c2ccccc2F)sc2c1CCCC2 | > 25 µM | > 25 µM | > 25 µM | > 25 µM | > 25 µM | > 25 µM | > 25 µM | > 25 µM | 5.07 µM | > 25 µM | > 25 µM | > 25 µM | 1.31 µM | > 12.1 µM | 10.4 µM | > 25 µM | > 25 µM | > 25 µM | > 25 µM | > 25 µM |
| CC1=NNC(=S)NCCCN2CCN(CCCNC(=S)NN=C(C)C=NNC(=S)NCCCN3CCN(CCCNC(=S)NN=C1)CC3)CC2 | – | > 100 µM | – | > 100 µM | – | > 100 µM | – | > 100 µM | – | > 100 µM | – | > 100 µM | – | > 100 µM | – | > 100 µM | – | > 100 µM | – | > 100 µM |
| CC1CCN(CCOc2ccc(CNc3ccc4nc(CCC5CCCCC5)[nH]c4c3)cc2)CC1 | 1.43 µM | 2.79 µM | 1.68 µM | 3.44 µM | 1.33 µM | 2.84 µM | 1.44 µM | 2.93 µM | 0.594 µM | 2.44 µM | 1.56 µM | 3.01 µM | 1.64 µM | 3.07 µM | 1.15 µM | 2.81 µM | 1.38 µM | 2.67 µM | 1.72 µM | 6.41 µM |
